In patent US9079854B2 (priority 2007, dated 2015):
Like-named read-outs stand apart in the source and are kept apart here.

Experiments:
[1] = molecular target: T1, human CB1 (hCB1) receptor (Homo sapiens, UniProt P21554); experiment: CB1 binding assay, competitive binding of [3H]CP 55940; settings: for % Inhibition of Control Specific Binding / % of Control Specific Binding 1st / % of Control Specific Binding 2nd / % of Control Specific Binding Mean: CB1, Test Concentration 1.0E−05 (MD); for % of Control Specific Binding 1st: 1st determination; for % of Control Specific Binding 2nd: 2nd determination; for inhibition at 10 µM / inhibition at 1 µM: specific binding of [3H]-CP55940; for inhibition at 1 µM: CHO membranes
T1 construct: expressed in transfected cells; host or cells: CHO (Chinese hamster ovary) cells, membranes
Description: Cell membrane homogenates (25 μg protein) are incubated for 120 min at 37° C. with 0.5 nM [^3H]CP 55940 (the reference standard [Rinaldi-Carmona, 1996 #1320]) in the absence or presence of the test compound in a buffer containing 50 mM Tris HCl (pH 7.4), 5 mM MgCl2, 2.5 mM EDTA, and 0.3% bovine serum albumin (BSA). […]
(§1) […] [^3H]-CP55940 at a concentration of 0.5 nM and [^3H]-WIN55212 at a concentration of 0.8 nM were used as radioligands for hCB1 and hCB2 assays, respectively. The results are expressed as a percent inhibition of control specific binding. Compounds which displaced the radioligand by more than 50% for either hCB1 or hCB2 receptors were arbitrary chosen for functional activity determination.

[2] = molecular target: T2, human CB2 (hCB2) receptor (Homo sapiens, UniProt P34972); experiment: CB2 binding assay, competitive binding of [3H]WIN 55212-2; settings: for % Inhibition of Control Specific Binding / % of Control Specific Binding 1st / % of Control Specific Binding 2nd / % of Control Specific Binding Mean: CB2, Test Concentration 1.0E−05 (MD); for % of Control Specific Binding 1st: 1st determination; for % of Control Specific Binding 2nd: 2nd determination; for inhibition at 10 µM / inhibition at 1 µM: specific binding of [3H]-WIN55212-2; for inhibition at 1 µM: CHO membranes
T2 construct: expressed in transfected cells; host or cells: CHO (Chinese hamster ovary) cells, membranes
Description: Cell membrane homogenates (15 μg protein) are incubated for 120 min at 37° C. with 0.8 nM [^3H]WIN 55212-2 (the reference standard [Munro, 1993 #1321]) in the absence or presence of the test compound in a buffer containing 50 mM HEPES/Tris HCL (pH 7.4), 5 mM MgCl2, 2.5 mM EGTA, and 0.1% BSA. Nonspecific binding is determined in the presence of 10 μM WIN 55212-2. After being incubated, the samples are filtered rapidly under vacuum through glass fiber filters (GF/B; Packard) presoaked with 0.3% PEI and rinsed several times with ice-cold buffer containing 50 mM Tris HCl (pH 7.4) and 0.5% BSA using a 96-sample cell harvester (Unifilter; Packard). The filters are dried then counted for radioactivity in a scintillation counter (Topcount; Packard) using a scintillation cocktail (Microscint 0; Packard). The results are expressed as a percentage of the inhibition of the control radioligand-specific binding. The reference standard compounds are tested in each experiment at several concentrations to obtain a competition curve from which its IC50 is calculated.
as §1

[3] = at 10 μM, read-out: % inhibition hCB2 receptor
[4] = read-out: % inhibition hCB2 receptor, at 10 μM
[5] = read-out: % inhibition hCB2 receptor, at 1 μM

T1 sequence (P21554 whole entry): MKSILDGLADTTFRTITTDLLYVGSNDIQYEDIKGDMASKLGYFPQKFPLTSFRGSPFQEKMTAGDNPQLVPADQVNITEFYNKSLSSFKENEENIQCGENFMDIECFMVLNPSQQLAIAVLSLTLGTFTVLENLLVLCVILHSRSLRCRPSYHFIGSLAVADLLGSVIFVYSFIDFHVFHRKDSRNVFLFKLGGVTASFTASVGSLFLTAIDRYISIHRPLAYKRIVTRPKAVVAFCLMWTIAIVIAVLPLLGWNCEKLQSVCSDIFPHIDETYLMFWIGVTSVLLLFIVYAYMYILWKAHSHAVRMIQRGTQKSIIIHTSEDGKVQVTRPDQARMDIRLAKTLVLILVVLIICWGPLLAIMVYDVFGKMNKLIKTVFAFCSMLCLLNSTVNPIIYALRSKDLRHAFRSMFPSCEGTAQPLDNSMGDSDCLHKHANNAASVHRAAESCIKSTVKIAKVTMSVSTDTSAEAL
T2 sequence (P34972 whole entry): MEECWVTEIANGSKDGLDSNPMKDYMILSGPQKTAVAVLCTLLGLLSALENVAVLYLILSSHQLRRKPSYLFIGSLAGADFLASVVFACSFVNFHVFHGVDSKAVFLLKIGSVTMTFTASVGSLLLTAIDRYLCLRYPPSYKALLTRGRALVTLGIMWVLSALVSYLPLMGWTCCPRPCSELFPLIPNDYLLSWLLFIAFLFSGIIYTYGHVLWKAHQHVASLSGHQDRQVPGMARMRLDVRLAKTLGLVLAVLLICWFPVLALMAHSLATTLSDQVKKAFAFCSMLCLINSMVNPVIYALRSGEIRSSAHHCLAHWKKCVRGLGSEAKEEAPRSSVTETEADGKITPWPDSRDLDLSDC

| Compound | % Inhibition of Control Specific Binding [1] [%] | % of Control Specific Binding 1st [1] [%] | % of Control Specific Binding 2nd [1] [%] | % of Control Specific Binding Mean [1] [%] | inhibition at 10 µM [1] [%] | % Inhibition of Control Specific Binding [2] [%] | % of Control Specific Binding 1st [2] [%] | % of Control Specific Binding 2nd [2] [%] | % of Control Specific Binding Mean [2] [%] | inhibition at 10 µM [2, 3] [%] | inhibition at 10 µM [2, 4] [%] | inhibition at 1 µM [1] [%] | inhibition at 1 µM [2, 5] [%] | inhibition at 1 µM ([2]; at 1 μM, read-out: % inhibition hCB2 receptor) [%] |
| --- | --- | --- | --- | --- | --- | --- | --- | --- | --- | --- | --- | --- | --- | --- |
| O=C1/C(=N\NC(=S)Nc2ccccc2)c2ccccc2N1CCC1CCCCC1 [Example 1, Phenyl thiocarbamoyl[1-(2-cyclohexyl-ethyl)-2-oxo-1,2-dihydro-indol-3-ylidene]-hydrazide] | 36 | 68.6 | 59.6 | 64.1 | < 40 | 15 | 83.3 | 87.6 | 85.4 | < 40 | – | – | – | – |
| CCCCCCN1C(=O)/C(=N\NC(=S)Nc2ccccc2)c2ccccc21 [Example 2, Phenyl thiocarbamoyl[1-n-hexyl-2-oxo-1,2-dihydro-indol-3-ylidene]-hydrazide] | – | 45.8 | 56.1 | 51 | 49 ± 5.2 | 38 | 59.8 | 64.7 | 62.3 | 37.7 ± 2.5 | – | – | – | – |
| O=C(N/N=C1\C(=O)N(CCC2CCCCC2)c2ccccc21)Nc1ccccc1 [Example 3] | 34 | 54.1 | 78.5 | 66.3 | < 40 | −3 | 98.6 | 107.1 | 102.8 | – | < 40 | – | – | – |
| CCCCCCN1C(=O)/C(=N\NC(=O)Nc2ccccc2)c2ccccc21 [Example 4, Phenyl carbamoyl[1-n-hexyl-2-oxo-1,2-dihydro-indol-3-ylidene]-hydrazide] | 37 | 64.3 | 61.4 | 62.9 | < 40 | −8 | 105.7 | 109.7 | 107.7 | – | < 40 | – | – | – |
| O=C1/C(=N\NS(=O)(=O)c2ccccc2)c2ccccc2N1CCC1CCCCC1 [Example 8] | 16 | 77.2 | 90 | 83.6 | < 40 | 9 | 89.2 | 93.3 | 91.2 | < 40 | – | – | – | – |
| CCCCCCN1C(=O)/C(=N\NS(=O)(=O)c2ccccc2)c2ccccc21 [Example 9, Phenyl sulfonyl[1-n-hexyl-2-oxo-1,2-dihydro-indol-3-ylidene]-hydrazide] | 8 | 87.7 | 96.1 | 91.9 | < 40 | −14 | 126.5 | 100.6 | 113.5 | < 40 | – | – | – | – |
| CCCCCCN1C(=O)/C(=N\NC(=O)CCCCC)c2ccccc21 [Example 12, N′-[(3Z)-1-hexyl-2-oxo-1,2-dihydro-3H-indol-3-ylidene]hexanohydrazide] | – | – | – | – | – | – | – | – | – | – | – | 45.2 ± 9.5 | 36.6 ± 8.8 | – |
| CCCCCCN1C(=O)/C(=N\NC(=O)c2ccc(Cl)cc2)c2ccccc21 [Example 13, 4-chloro-N′-[(3Z)-1-hexyl-2-oxo-1,2-dihydro-3H-indol-3-ylidene]benzohydrazide] | – | – | – | – | – | – | – | – | – | – | – | 46.6 ± 4.3 | 32.7 ± 5.3 | – |
| CCCCCCN1C(=O)/C(=N\NC(=O)c2ccc3ccccc3c2)c2ccccc21 [Example 16, N′-[(3Z)-1-hexyl-2-oxo-1,2-dihydro-3H-indol-3-ylidene]-2-naphthohydrazide] | – | – | – | – | – | – | – | – | – | – | – | < 30 | < 30 | – |
| CCCCCCN1C(=O)/C(=N\NC(=O)c2cc3ccccc3s2)c2ccccc21 [Example 18, N′-[(3Z)-1-hexyl-2-oxo-1,2-dihydro-3H-indol-3-ylidene]-1-benzothiophene-2-carbohydrazide] | – | – | – | – | – | – | – | – | – | – | – | < 30 | < 30 | – |
| CCCCCCCCCCCCN1C(=O)/C(=N\NC(=O)c2ccccc2)c2ccccc21 [Example 24, N′-[(3Z)-1-(1-dodecyl)-2-oxo-1,2-dihydro-3H-indol-3-ylidene]benzohydrazide] | – | – | – | – | – | – | – | – | – | – | – | 23.8 ± 4.5 | 24.3 ± 4.1 | – |
| O=C(N/N=C1\C(=O)N(CCN2C(=O)c3ccccc3C2=O)c2ccccc21)c1ccccc1 [Example 27, N′-{[3Z]-1-[2-(1,3-dioxo-1,3-dihydro-2H-isoindol-2-yl)ethyl]-2-oxo-1,2-dihydro-3H-indol-3-ylidene}benzohydrazide] | – | – | – | – | – | – | – | – | – | – | – | 3 ± 4.1 | – | 3 ± 3.2 |
| CCCCCCN1C(=O)/C(=N\NC(=O)c2ccccc2)c2cc(C)ccc21 [Example 31, N′-[(3Z)-1-hexyl-5-methyl-2-oxo-1,2-dihydro-3H-indol-3-ylidene]benzohydrazide] | – | – | – | – | – | – | – | – | – | – | – | 22 ± 0.9 | 1 ± 2.7 | – |
| CCCCCCN1C(=O)/C(=N\NC(=O)c2ccccc2)c2cc(OC)ccc21 [Example 32, N′-[(3Z)-1-hexyl-5-methoxy-2-oxo-1,2-dihydro-3H-indol-3-ylidene]benzohydrazide] | – | – | – | – | – | – | – | – | – | – | – | 26 ± 3.1 | 17 ± 1.2 | – |
| CCCCCCN1C(=O)/C(=N\NC(=O)c2ccccc2)c2cc(Cl)ccc21 [Example 34, N′-[(3Z)-5-chloro-1-hexyl-2-oxo-1,2-dihydro-3H-indol-3-ylidene]benzohydrazide] | – | – | – | – | – | – | – | – | – | – | – | 9 ± 1.4 | 6 ± 1.4 | – |
| CCCCCN1C(=O)/C(=N\NC(=O)c2ccccc2)c2cc(I)ccc21 [Example 35, N′-[(3Z)-5-iodo-2-oxo-1-pentyl-1,2-dihydro-3H-indol-3-ylidene]benzohydrazide] | – | – | – | – | – | – | – | – | – | – | – | 25 ± 0.2 | 10 ± 0.2 | – |
